Tested on: intraocular pressure (IOP) in New Zealand White rabbits
Test: Intraocular pressure in New Zealand White rabbits, topical dosing four times daily
Type: in vivo
Details: for Intraocular Pressure, MEAN: A.M. readings
Method: On Days 1-31, animals received daily topical doses of the appropriate test article into the right eye. Animals were dosed four times per day, with doses administered 2 hours apart. Doses were administered using a calibrated 50-μL pipette. The eyelids were held close for 10 seconds immediately following dosing. The time of each dose administration was recorded.
Intraocular pressure (“IOP”) was determined for both eyes of each animal on Days 3, 5, 10, 12, 16, 18, 22, 24, 26, 30, and 32. LOP was evaluated with a Medtronic Solan, Model 30 classic pneumatonometer. Proparacaine hydrochloride 0.5% (1 drop) was delivered to each eye prior to IOP measurement. IOP was measured on Monday, Wednesday, and Friday of each week. A two-point diurnal curve was established: IOP was recorded at 8 a.m. and 12 p.m. on Day 3, and at 8 a.m. and 2 p.m. on later days, with a ±1 hour range for each of these times. The time of the measurements was recorded.
Descriptive statistics were prepared for IOP data of each treatment group (left and right eyes separately) at each measurement interval. The statistics included the number of observations (“N”), mean, standard deviation (“STD”), and standard error (“SEM”). Statistical analyses were conducted on IOP results using Statistical Analysis Systems (SAS Institute, Inc., Cary, N.C., V8.0). Parameters were evaluated using analysis of variance/GLM Procedure followed by Tukey's Standardized Range Test (Tukey, 1985) for post hoc comparisons of group means. The level of significance was set at a probability of p<0.05 for all statistical procedures. Group IOP means were compared at each interval, with left and right eyes compared separately.
IOP data for the following six animals were excluded from group statistics: Group A, Nos. 3081, 3037, 3068, and 3011; Group C, No. 3034; and Group E, No. 3084.

SMILES: Cc1ccc2c(NCC(O)(CC(C)(C)c3cc(F)cc4c3OCC4)C(F)(F)F)cccc2n1 (stereo not shown) [BOL-303242-X]
- Intraocular Pressure, MEAN (1 mg/g BOL-303242-X (Group D), untreated left eyes, Day 3): 23.5 mmHg
- Intraocular Pressure, MEAN (1 mg/g BOL-303242-X (Group D), untreated left eyes, Day 5): 24.4 mmHg
- Intraocular Pressure, MEAN (1 mg/g BOL-303242-X (Group D), untreated left eyes, Day 10): 24.5 mmHg
- Intraocular Pressure, MEAN (1 mg/g BOL-303242-X (Group D), untreated left eyes, Day 12): 22.2 mmHg
- Intraocular Pressure, MEAN (1 mg/g BOL-303242-X (Group D), untreated left eyes, Day 16): 21.6 mmHg
- Intraocular Pressure, MEAN (1 mg/g BOL-303242-X (Group D), untreated left eyes, Day 18): 23.3 mmHg
- Intraocular Pressure, MEAN (1 mg/g BOL-303242-X (Group D), untreated left eyes, Day 22): 22.4 mmHg
- Intraocular Pressure, MEAN (1 mg/g BOL-303242-X (Group D), untreated left eyes, Day 24): 22.4 mmHg
- Intraocular Pressure, MEAN (1 mg/g BOL-303242-X (Group D), untreated left eyes, Day 26): 22.9 mmHg
- Intraocular Pressure, MEAN (1 mg/g BOL-303242-X (Group D), untreated left eyes, Day 30): 23.4 mmHg
- Intraocular Pressure, MEAN (1 mg/g BOL-303242-X (Group D), untreated left eyes, Day 32): 24.1 mmHg
- Intraocular Pressure, MEAN (1 mg/g BOL-303242-X (Group D), untreated left eyes, Pre-Study): 23.9 mmHg
- Intraocular Pressure, MEAN (5 mg/g BOL-303242-X (Group C), untreated left eyes, Day 3): 23.8 mmHg
- Intraocular Pressure, MEAN (5 mg/g BOL-303242-X (Group C), untreated left eyes, Day 5): 24.4 mmHg
- Intraocular Pressure, MEAN (5 mg/g BOL-303242-X (Group C), untreated left eyes, Day 10): 24.6 mmHg
- Intraocular Pressure, MEAN (5 mg/g BOL-303242-X (Group C), untreated left eyes, Day 12): 23.8 mmHg
- Intraocular Pressure, MEAN (5 mg/g BOL-303242-X (Group C), untreated left eyes, Day 16): 23.4 mmHg
- Intraocular Pressure, MEAN (5 mg/g BOL-303242-X (Group C), untreated left eyes, Day 18): 21.9 mmHg
- Intraocular Pressure, MEAN (5 mg/g BOL-303242-X (Group C), untreated left eyes, Day 22): 21.6 mmHg
- Intraocular Pressure, MEAN (5 mg/g BOL-303242-X (Group C), untreated left eyes, Day 24): 22.1 mmHg
- Intraocular Pressure, MEAN (5 mg/g BOL-303242-X (Group C), untreated left eyes, Day 26): 21.7 mmHg
- Intraocular Pressure, MEAN (5 mg/g BOL-303242-X (Group C), untreated left eyes, Day 30): 22.6 mmHg
- Intraocular Pressure, MEAN (5 mg/g BOL-303242-X (Group C), untreated left eyes, Day 32): 23.1 mmHg
- Intraocular Pressure, MEAN (5 mg/g BOL-303242-X (Group C), untreated left eyes, Pre-Study): 24.2 mmHg
- Intraocular Pressure, MEAN (10 mg/g BOL-303242-X (Group B), untreated left eyes, Day 3): 23.3 mmHg
- Intraocular Pressure, MEAN (10 mg/g BOL-303242-X (Group B), untreated left eyes, Day 5): 23.4 mmHg
- Intraocular Pressure, MEAN (10 mg/g BOL-303242-X (Group B), untreated left eyes, Day 10): 24.0 mmHg
- Intraocular Pressure, MEAN (10 mg/g BOL-303242-X (Group B), untreated left eyes, Day 12): 23.8 mmHg
- Intraocular Pressure, MEAN (10 mg/g BOL-303242-X (Group B), untreated left eyes, Day 16): 22.9 mmHg
- Intraocular Pressure, MEAN (10 mg/g BOL-303242-X (Group B), untreated left eyes, Day 18): 21.2 mmHg
- Intraocular Pressure, MEAN (10 mg/g BOL-303242-X (Group B), untreated left eyes, Day 22): 21.8 mmHg
- Intraocular Pressure, MEAN (10 mg/g BOL-303242-X (Group B), untreated left eyes, Day 24): 20.2 mmHg
- Intraocular Pressure, MEAN (10 mg/g BOL-303242-X (Group B), untreated left eyes, Day 26): 21.7 mmHg
- Intraocular Pressure, MEAN (10 mg/g BOL-303242-X (Group B), untreated left eyes, Day 30): 22.7 mmHg
- Intraocular Pressure, MEAN (10 mg/g BOL-303242-X (Group B), untreated left eyes, Day 32): 22.9 mmHg
- Intraocular Pressure, MEAN (10 mg/g BOL-303242-X (Group B), untreated left eyes, Pre-Study): 23.8 mmHg
- Differences in mean IOP versus the BSS group (BOL-303242-X 1, 5, 10 mg/g suspensions): No statistically significant (p<0.05) differences
- IOP compared to daily dosing with dexamethasone (BOL-303242-X suspensions 0.05, 0.25 or 0.5 mg/dose, daily dosing up to 31 days): did not increase IOP
- Mean IOP after treatment began (rabbits, right eye four times daily up to 31 days, dexamethasone 0.1%, BOL-303242-X 1, 5, 10 mg/g, left and right eyes): This increase was not seen
- Intraocular Pressure, MEAN (treated right eyes, Day 3, 1 mg/g (Group D)): 23.0 mmHg
- Intraocular Pressure, MEAN (treated right eyes, Day 3, 5 mg/g (Group C)): 23.7 mmHg
- Intraocular Pressure, MEAN (treated right eyes, Day 3, 10 mg/g (Group B)): 22.7 mmHg
- Intraocular Pressure, MEAN (treated right eyes, Day 5, 1 mg/g (Group D)): 24.7 mmHg
- Intraocular Pressure, MEAN (treated right eyes, Day 5, 5 mg/g (Group C)): 24.7 mmHg
- Intraocular Pressure, MEAN (treated right eyes, Day 5, 10 mg/g (Group B)): 23.8 mmHg
- Intraocular Pressure, MEAN (treated right eyes, Day 10, 1 mg/g (Group D)): 24.8 mmHg
- Intraocular Pressure, MEAN (treated right eyes, Day 10, 5 mg/g (Group C)): 25.2 mmHg
- Intraocular Pressure, MEAN (treated right eyes, Day 10, 10 mg/g (Group B)): 24.5 mmHg
- Intraocular Pressure, MEAN (treated right eyes, Day 12, 1 mg/g (Group D)): 23.4 mmHg
- Intraocular Pressure, MEAN (treated right eyes, Day 12, 5 mg/g (Group C)): 25.0 mmHg
- Intraocular Pressure, MEAN (treated right eyes, Day 12, 10 mg/g (Group B)): 23.9 mmHg
- Intraocular Pressure, MEAN (treated right eyes, Day 16, 1 mg/g (Group D)): 22.1 mmHg
- Intraocular Pressure, MEAN (treated right eyes, Day 16, 5 mg/g (Group C)): 24.3 mmHg
- Intraocular Pressure, MEAN (treated right eyes, Day 16, 10 mg/g (Group B)): 23.4 mmHg
- Intraocular Pressure, MEAN (treated right eyes, Day 18, 1 mg/g (Group D)): 23.7 mmHg
- Intraocular Pressure, MEAN (treated right eyes, Day 18, 5 mg/g (Group C)): 23.9 mmHg
- Intraocular Pressure, MEAN (treated right eyes, Day 18, 10 mg/g (Group B)): 22.3 mmHg
- Intraocular Pressure, MEAN (treated right eyes, Day 22, 1 mg/g (Group D)): 23.2 mmHg
- Intraocular Pressure, MEAN (treated right eyes, Day 22, 5 mg/g (Group C)): 22.4 mmHg
- Intraocular Pressure, MEAN (treated right eyes, Day 22, 10 mg/g (Group B)): 22.4 mmHg
- Intraocular Pressure, MEAN (treated right eyes, Day 24, 1 mg/g (Group D)): 22.1 mmHg
- Intraocular Pressure, MEAN (treated right eyes, Day 24, 5 mg/g (Group C)): 23.8 mmHg
- Intraocular Pressure, MEAN (treated right eyes, Day 24, 10 mg/g (Group B)): 21.2 mmHg
- Intraocular Pressure, MEAN (treated right eyes, Day 26, 1 mg/g (Group D)): 23.1 mmHg

— patent publication US20120065228A1, “COMPOSITIONS AND METHODS FOR TREATING, CONTROLLING, REDUCING, OR AMELIORATING OCULAR INFLAMMATORY WITH LOWER RISK OF INCREASED INTRAOCULAR PRESSURE” (priority 2007, published 2012)
